Test results: patent US11459570B2, “Transgenic mouse expressing amyloid precursor protein that has olfactory neuron degeneration” (The General Hospital Corporation, priority 2014, dated 2022)

Key:
OSNs = conditions: mice, intranasal instillation; cited from earlier work
[1] = tested on: neuronal differentiated ReNcell VM cells; assay: Viability of differentiated ReNcell VM neurons transfected with poly IC (Celltiter-Glo); assay type: cell-based, human; conditions: escalating doses of poly IC, after 2 days (48 hours) in culture
Procedure: (§1) FIGS. 12A-G. dsRNA induces a Type I interferon response and is sufficient to induced neurodegeneration in human neurons. A-E) Representative transmitted light images of differentiated ReNVM neurons transfected with increasing doses of PolyIC, a dsRNA mimetic, showing a dose-dependent loss of neurons after 48 hours.
(§2) Cytoplasmic dsRNA is sensed by three different proteins, PKR, MDA5, and RIG-I, that are components of the innate immune system. Engagement of each protein by dsRNA induces interferon signaling and neurodegeneration. […] To determine if cytoplasmic dsRNA was sufficient to mediate neurodegeneration in a human neurons, we transfected neuronal differentiated ReNcell VM cells, a human neural cell line derived from ventral mesencephalon, with escalating doses of poly IC (which mimics a GC dinucleotide repeat).

MDA5 and PKR = assay: Western blots of type I interferon-stimulated genes in differentiated ReNVM cells after PolyIC transfection; assay type: cell-based, human; conditions: western blot, 24 hour post transfection with PolyIC
Procedure: as §1, §2

cortical neurons = conditions: rats; cited from earlier work

Substance: polyinosinic-polycytidylic acid [poly IC]
- degeneration of OSNs (OSNs): causes degeneration
- viability of ReNVM neurons relative to mock-transfected neurons [1]: dose-dependent reduction in their viability
- viability of ReNVM neurons relative to mock-transfected neurons ([1]; listed as PolyIC): dose-dependent loss in cell viability
- protein expression of type I interferon-stimulated genes (MDA5, PKR) (MDA5 and PKR): massive induction of MDA5 and PKR
- protein expression of type I interferon-stimulated genes (MDA5, PKR) (MDA5 and PKR; listed as PolyIC): elevated protein expression of type I interferon-stimulated genes
- degeneration of cortical neurons (cortical neurons): causes degeneration
